{"source": "PubChem BioAssay AID1259407", "about": "(Chemical Carcinogenesis Research Information System (CCRIS), 2018)", "test_system": "CCRIS mutagenicity, Ames/micronucleus/aberration tests", "assay": "CCRIS mutagenicity studies", "key": {"[1]": {"settings": "Test System: AMES SALMONELLA TYPHIMURIUM, Strain/Indicator: TA98, Metabolic Activation: NONE, Method: STANDARD PLATE"}, "[2]": {"settings": "Test System: AMES SALMONELLA TYPHIMURIUM, Strain/Indicator: TA98, Metabolic Activation: RAT, LIVER, S-9, AROCLOR 1254, Method: STANDARD PLATE"}, "[3]": {"settings": "Test System: AMES SALMONELLA TYPHIMURIUM, Strain/Indicator: TA100, Metabolic Activation: NONE, Method: STANDARD PLATE"}, "[4]": {"settings": "Test System: AMES SALMONELLA TYPHIMURIUM, Strain/Indicator: TA100, Metabolic Activation: RAT, LIVER, S-9, AROCLOR 1254, Method: STANDARD PLATE"}, "[5]": {"settings": "Test System: AMES SALMONELLA TYPHIMURIUM, Strain/Indicator: TA1538, Metabolic Activation: NONE, Method: STANDARD PLATE"}, "[6]": {"settings": "Test System: AMES SALMONELLA TYPHIMURIUM, Strain/Indicator: TA1538, Metabolic Activation: RAT, LIVER, S-9, AROCLOR 1254, Method: STANDARD PLATE"}}, "note": "The source made the active and inactive calls. No rule for the calls is given here."}
{"smiles": "Cc1ccccc1Cl", "values": [{"measurement": "mutagenic call", "setting": "Test System: AMES SALMONELLA TYPHIMURIUM, Strain/Indicator: TA98, Metabolic Activation: HAMSTER, LIVER, S-9, AROCLOR 1254, Method: STANDARD PLATE", "result": "inactive; negative"}, {"measurement": "mutagenic call", "setting": "Test System: AMES SALMONELLA TYPHIMURIUM, Strain/Indicator: TA98, Metabolic Activation: NONE, Method: PREINCUBATION", "result": "inactive; negative"}, {"measurement": "mutagenic call", "setting": "[1]", "result": "inactive; negative"}, {"measurement": "mutagenic call", "setting": "Test System: AMES SALMONELLA TYPHIMURIUM, Strain/Indicator: TA98, Metabolic Activation: RAT LIVER S-9, PHENOBARBITAL AND BETA-NAPHTHOFLAVONE, Method: PREINCUBATION", "result": "inactive; negative"}, {"measurement": "mutagenic call", "setting": "[2]", "result": "inactive; negative"}, {"measurement": "mutagenic call", "setting": "Test System: AMES SALMONELLA TYPHIMURIUM, Strain/Indicator: TA100, Metabolic Activation: HAMSTER, LIVER, S-9, AROCLOR 1254, Method: STANDARD PLATE", "result": "inactive; negative"}, {"measurement": "mutagenic call", "setting": "Test System: AMES SALMONELLA TYPHIMURIUM, Strain/Indicator: TA100, Metabolic Activation: NONE, Method: PREINCUBATION", "result": "inactive; negative"}, {"measurement": "mutagenic call", "setting": "[3]", "result": "inactive; negative"}, {"measurement": "mutagenic call", "setting": "Test System: AMES SALMONELLA TYPHIMURIUM, Strain/Indicator: TA100, Metabolic Activation: RAT LIVER S-9, PHENOBARBITAL AND BETA-NAPHTHOFLAVONE, Method: PREINCUBATION", "result": "inactive; negative"}, {"measurement": "mutagenic call", "setting": "[4]", "result": "inactive; negative"}, {"measurement": "mutagenic call", "setting": "Test System: AMES SALMONELLA TYPHIMURIUM, Strain/Indicator: TA102, Metabolic Activation: NONE, Method: PREINCUBATION", "result": "inactive; negative"}, {"measurement": "mutagenic call", "setting": "Test System: AMES SALMONELLA TYPHIMURIUM, Strain/Indicator: TA102, Metabolic Activation: RAT LIVER S-9, PHENOBARBITAL AND BETA-NAPHTHOFLAVONE, Method: PREINCUBATION", "result": "inactive; negative"}, {"measurement": "mutagenic call", "setting": "Test System: AMES SALMONELLA TYPHIMURIUM, Strain/Indicator: TA104, Metabolic Activation: NONE, Method: PREINCUBATION", "result": "inactive; negative"}, {"measurement": "mutagenic call", "setting": "Test System: AMES SALMONELLA TYPHIMURIUM, Strain/Indicator: TA104, Metabolic Activation: RAT LIVER S-9, PHENOBARBITAL AND BETA-NAPHTHOFLAVONE, Method: PREINCUBATION", "result": "inactive; negative"}, {"measurement": "mutagenic call", "setting": "Test System: AMES SALMONELLA TYPHIMURIUM, Strain/Indicator: TA1535, Metabolic Activation: HAMSTER, LIVER, S-9, AROCLOR 1254, Method: STANDARD PLATE", "result": "inactive; negative"}, {"measurement": "mutagenic call", "setting": "Test System: AMES SALMONELLA TYPHIMURIUM, Strain/Indicator: TA1535, Metabolic Activation: NONE, Method: PREINCUBATION", "result": "inactive; negative"}, {"measurement": "mutagenic call", "setting": "Test System: AMES SALMONELLA TYPHIMURIUM, Strain/Indicator: TA1535, Metabolic Activation: NONE, Method: STANDARD PLATE", "result": "inactive; negative"}, {"measurement": "mutagenic call", "setting": "Test System: AMES SALMONELLA TYPHIMURIUM, Strain/Indicator: TA1535, Metabolic Activation: RAT LIVER S-9, PHENOBARBITAL AND BETA-NAPHTHOFLAVONE, Method: PREINCUBATION", "result": "inactive; negative"}, {"measurement": "mutagenic call", "setting": "Test System: AMES SALMONELLA TYPHIMURIUM, Strain/Indicator: TA1535, Metabolic Activation: RAT, LIVER, S-9, AROCLOR 1254, Method: STANDARD PLATE", "result": "inactive; negative"}, {"measurement": "mutagenic call", "setting": "Test System: AMES SALMONELLA TYPHIMURIUM, Strain/Indicator: TA1537, Metabolic Activation: HAMSTER, LIVER, S-9, AROCLOR 1254, Method: STANDARD PLATE", "result": "inactive; negative"}, {"measurement": "mutagenic call", "setting": "Test System: AMES SALMONELLA TYPHIMURIUM, Strain/Indicator: TA1537, Metabolic Activation: NONE, Method: PREINCUBATION", "result": "inactive; negative"}, {"measurement": "mutagenic call", "setting": "Test System: AMES SALMONELLA TYPHIMURIUM, Strain/Indicator: TA1537, Metabolic Activation: NONE, Method: STANDARD PLATE", "result": "inactive; negative"}, {"measurement": "mutagenic call", "setting": "Test System: AMES SALMONELLA TYPHIMURIUM, Strain/Indicator: TA1537, Metabolic Activation: RAT LIVER S-9, PHENOBARBITAL AND BETA-NAPHTHOFLAVONE, Method: PREINCUBATION", "result": "inactive; negative"}, {"measurement": "mutagenic call", "setting": "Test System: AMES SALMONELLA TYPHIMURIUM, Strain/Indicator: TA1537, Metabolic Activation: RAT, LIVER, S-9, AROCLOR 1254, Method: STANDARD PLATE", "result": "inactive; negative"}, {"measurement": "mutagenic call", "setting": "Test System: AMES SALMONELLA TYPHIMURIUM, Strain/Indicator: TA1538, Metabolic Activation: HAMSTER, LIVER, S-9, AROCLOR 1254, Method: STANDARD PLATE", "result": "inactive; negative"}, {"measurement": "mutagenic call", "setting": "Test System: AMES SALMONELLA TYPHIMURIUM, Strain/Indicator: TA1538, Metabolic Activation: NONE, Method: PREINCUBATION", "result": "inactive; negative"}, {"measurement": "mutagenic call", "setting": "[5]", "result": "inactive; negative"}, {"measurement": "mutagenic call", "setting": "Test System: AMES SALMONELLA TYPHIMURIUM, Strain/Indicator: TA1538, Metabolic Activation: RAT LIVER S-9, PHENOBARBITAL AND BETA-NAPHTHOFLAVONE, Method: PREINCUBATION", "result": "inactive; negative"}, {"measurement": "mutagenic call", "setting": "[6]", "result": "inactive; negative"}, {"measurement": "mutagenic call", "setting": "Test System: E. COLI, Strain/Indicator: WP2UVRA/PKM101, Metabolic Activation: RAT LIVER S-9, PHENOBARBITAL AND BETA-NAPHTHOFLAVONE, Method: PREINCUBATION", "result": "inactive; negative"}, {"measurement": "mutagenic call", "setting": "Test System: E. COLI, Strain/Indicator: WP2UVRA, Metabolic Activation: NONE, Method: PREINCUBATION", "result": "inactive; negative"}, {"measurement": "mutagenic call", "setting": "Test System: E. COLI, Strain/Indicator: WP2UVRA, Metabolic Activation: RAT LIVER S-9, PHENOBARBITAL AND BETA-NAPHTHOFLAVONE, Method: PREINCUBATION", "result": "inactive; negative"}, {"measurement": "mutagenic call", "setting": "Test System: E.COLI, Strain/Indicator: WP2UVRA/PKM101, Metabolic Activation: NONE, Method: PREINCUBATION", "result": "inactive; negative"}, {"measurement": "mutagenic call", "setting": "Test System: Mouse lymphoma, Strain/Indicator: L5178Y (tk+/tk-), Metabolic Activation: None, Method: Suspension/plate", "result": "inactive; negative"}, {"measurement": "mutagenic call", "setting": "Test System: Mouse lymphoma, Strain/Indicator: L5178Y (tk+/tk-), Metabolic Activation: Rat, Liver, S-9, Aroclor 1254, Method: Suspension/plate", "result": "inactive; negative"}]}
{"smiles": "CCC(=O)C(=O)CC", "values": [{"measurement": "mutagenic call", "setting": "[3]", "result": "active; positive"}]}
{"smiles": "Oc1cc2cc3ccccc3cc2c2ccccc12", "values": [{"measurement": "mutagenic call", "setting": "Test System: CHINESE HAMSTER V-79, Strain/Indicator: V-79/8-AZAGUANINE, Metabolic Activation: NONE, Method: STANDARD PLATE", "result": "active; positive"}]}
{"smiles": "CC(=O)Nc1ccc([N+](=O)[O-])cc1", "values": [{"measurement": "mutagenic call", "setting": "Test System: AMES SALMONELLA TYPHIMURIUM, Strain/Indicator: TA98(NR), Metabolic Activation: NONE, Method: STANDARD PLATE", "result": "inactive; negative"}, {"measurement": "mutagenic call", "setting": "Test System: AMES SALMONELLA TYPHIMURIUM, Strain/Indicator: TA98(NR), Metabolic Activation: RAT, LIVER, S-9, AROCLOR 1254, Method: STANDARD PLATE", "result": "inactive; negative"}, {"measurement": "mutagenic call", "setting": "[1]", "result": "inactive; negative"}, {"measurement": "mutagenic call", "setting": "[2]", "result": "inactive; negative"}, {"measurement": "mutagenic call", "setting": "Test System: AMES SALMONELLA TYPHIMURIUM, Strain/Indicator: TA1538(NR), Metabolic Activation: NONE, Method: STANDARD PLATE", "result": "inactive; negative"}, {"measurement": "mutagenic call", "setting": "Test System: AMES SALMONELLA TYPHIMURIUM, Strain/Indicator: TA1538(NR), Metabolic Activation: RAT, LIVER, S-9, AROCLOR 1254, Method: STANDARD PLATE", "result": "inactive; negative"}, {"measurement": "mutagenic call", "setting": "[5]", "result": "inactive; negative"}, {"measurement": "mutagenic call", "setting": "[6]", "result": "inactive; negative"}]}
{"smiles": "Nc1cc(Cl)c(N)c(Cl)c1", "values": [{"measurement": "mutagenic call", "setting": "End Point: IN VITRO CHROMOSOMAL ABERRATIONS, Test System: CHO CELLS, Metabolic Activation: NONE", "result": "active; positive; weak response"}]}
{"smiles": "c1ccc2c(c1)Cc1ccc3ccc4ccccc4c3c1-2", "values": [{"measurement": "mutagenic call", "setting": "[4]", "result": "inactive; negative"}]}
